Measured values: ChEMBL document CHEMBL1697731, “Cheminformatics analysis of assertions mined from literature that describe drug-induced liver injury in different species” (Chem Res Toxicol, 2010)

Assays:
Hepatotoxicity [1] = test: Literature-mined compound from Fourches et al multi-species drug-induced liver injury (DILI) dataset, effect in humans; details: human
Hepatotoxicity [2] = test: Literature-mined compound from Fourches et al multi-species drug-induced liver injury (DILI) dataset, effect in rodents; details: rodentia
Hepatotoxicity [3] = test: Literature-mined compound from Fourches et al multi-species drug-induced liver injury (DILI) dataset, effect in non-rodents

Structure (SMILES)	Hepatotoxicity (Hepatotoxicity [1])	Hepatotoxicity (Hepatotoxicity [2])	Hepatotoxicity (Hepatotoxicity [3])	Hepatotoxicity (Hepatotoxicity [1]; Liver)	Hepatotoxicity (Hepatotoxicity [2]; Liver)	Hepatotoxicity (Hepatotoxicity [3]; Liver)
CCC1=C(C[C@H]2NCCc3cc(OC)c(OC)cc32)C[C@H]2c3cc(OC)c(OC)cc3CCN2C1 [DEHYDROEMETINE]	no drug-induced liver injury reported	drug-induced liver injury reported	no drug-induced liver injury reported			
C#C[C@]1(O)CC[C@H]2[C@@H]3CCC4=CCCC[C@@H]4[C@H]3C(=C)C[C@@]21CC [DESOGESTREL]	drug-induced liver injury reported	no drug-induced liver injury reported	no drug-induced liver injury reported			
CN1C(=O)[C@@H](NC(=O)c2cc3ccccc3[nH]2)N=C(c2ccccc2)c2ccccc21 [DEVAZEPIDE]	no drug-induced liver injury reported	drug-induced liver injury reported	no drug-induced liver injury reported			
C[C@@H]1C[C@H]2[C@@H]3CCC4=CC(=O)C=C[C@]4(C)[C@@]3(F)[C@@H](O)C[C@]2(C)[C@@]1(O)C(=O)CO [DEXAMETHASONE]	drug-induced liver injury reported	drug-induced liver injury reported	drug-induced liver injury reported			
CCN[C@@H](C)Cc1cccc(C(F)(F)F)c1 [DEXFENFLURAMINE]	drug-induced liver injury reported	drug-induced liver injury reported	no drug-induced liver injury reported			
C[C@@H](CN1CC(=O)NC(=O)C1)N1CC(=O)NC(=O)C1 [DEXRAZOXANE]	no drug-induced liver injury reported	drug-induced liver injury reported	no drug-induced liver injury reported			
O=C[C@H](O)[C@@H](O)[C@H](O)[C@H](O)CO[C@H]1O[C@H](CO[C@H]2O[C@H](CO)[C@@H](O)[C@H](O)[C@H]2O)[C@@H](O)[C@H](O)[C@H]1O [DEXTRAN]	no drug-induced liver injury reported	drug-induced liver injury reported	drug-induced liver injury reported			
C[C@H](N)Cc1ccccc1 [DEXTROAMPHETAMINE]	no drug-induced liver injury reported	drug-induced liver injury reported	no drug-induced liver injury reported			
COc1ccc2c(c1)[C@]13CCCC[C@@H]1[C@H](C2)N(C)CC3 [DEXTROMETHORPHAN]	drug-induced liver injury reported	no drug-induced liver injury reported	no drug-induced liver injury reported			
OC[C@H]1OC(O)[C@H](O)[C@@H](O)[C@@H]1O (some centres not stated) [DEXTROSE]	drug-induced liver injury reported	drug-induced liver injury reported	drug-induced liver injury reported			
CC(=O)Nc1c(I)c(NC(C)=O)c(I)c(C(=O)[O-])c1I.[Na+] [DIATRIZOATE SODIUM]	no drug-induced liver injury reported	drug-induced liver injury reported	no drug-induced liver injury reported			
CN1C(=O)CN=C(c2ccccc2)c2cc(Cl)ccc21 [DIAZEPAM]				drug-induced liver injury reported	drug-induced liver injury reported	drug-induced liver injury reported
CC1=NS(=O)(=O)c2cc(Cl)ccc2N1 [DIAZOXIDE]	drug-induced liver injury reported	drug-induced liver injury reported	no drug-induced liver injury reported			
O=c1oc2ccccc2c(O)c1Cc1c(O)c2ccccc2oc1=O [DICUMAROL]	drug-induced liver injury reported	drug-induced liver injury reported	no drug-induced liver injury reported			
O=c1[nH]cnc2c1ncn2[C@H]1CC[C@@H](CO)O1 [DIDANOSINE]	drug-induced liver injury reported	drug-induced liver injury reported	no drug-induced liver injury reported			
C[C@]12CCC3=C4CCC(=O)C=C4CC[C@H]3[C@@H]1CC[C@@]2(O)CC#N [DIENOGEST]	no drug-induced liver injury reported	drug-induced liver injury reported	no drug-induced liver injury reported			
CC/C(=C(/CC)c1ccc(O)cc1)c1ccc(O)cc1 [DIETHYLSTILBESTROL]	drug-induced liver injury reported	drug-induced liver injury reported	drug-induced liver injury reported			

Structure (SMILES)	Hepatotoxicity (Hepatotoxicity [1])	Hepatotoxicity (Hepatotoxicity [2])	Hepatotoxicity (Hepatotoxicity [3])	Hepatotoxicity (Hepatotoxicity [1]; Liver)	Hepatotoxicity (Hepatotoxicity [2]; Liver)	Hepatotoxicity (Hepatotoxicity [3]; Liver)
CCN(CC)C(=O)c1cccc(C)c1 [DIETHYLTOLUAMIDE]	no drug-induced liver injury reported	drug-induced liver injury reported	no drug-induced liver injury reported			
O=C(O)c1cc(-c2ccc(F)cc2F)ccc1O [DIFLUNISAL]				drug-induced liver injury reported	drug-induced liver injury reported	drug-induced liver injury reported
C[C@H]1O[C@@H](O[C@H]2[C@@H](O)C[C@H](O[C@H]3[C@@H](O)C[C@H](O[C@H]4CC[C@@]5(C)[C@H](CC[C@@H]6[C@@H]5CC[C@]5(C)[C@@H](C7=CC(=O)OC7)CC[C@]65O)C4)O[C@@H]3C)O[C@@H]2C)C[C@H](O)[C@@H]1O [DIGITOXIN]	no drug-induced liver injury reported	drug-induced liver injury reported	no drug-induced liver injury reported			
C[C@H]1O[C@@H](O[C@H]2[C@@H](O)C[C@H](O[C@H]3[C@@H](O)C[C@H](O[C@H]4CC[C@@]5(C)[C@H](CC[C@@H]6[C@@H]5C[C@@H](O)[C@]5(C)[C@@H](C7=CC(=O)OC7)CC[C@]65O)C4)O[C@@H]3C)O[C@@H]2C)C[C@H](O)[C@@H]1O [DIGOXIN]	no drug-induced liver injury reported	drug-induced liver injury reported	drug-induced liver injury reported			
NNc1nnc(NN)c2ccccc12 [DIHYDRALAZINE]	drug-induced liver injury reported	drug-induced liver injury reported	no drug-induced liver injury reported			
CN1C[C@H](C(=O)N[C@]2(C)O[C@@]3(O)[C@@H]4CCCN4C(=O)[C@H](Cc4ccccc4)N3C2=O)C[C@@H]2c3cccc4[nH]cc(c34)C[C@H]21 [DIHYDROERGOTAMINE]	drug-induced liver injury reported	drug-induced liver injury reported	no drug-induced liver injury reported			
COc1ccc([C@@H]2Sc3ccccc3N(CCN(C)C)C(=O)[C@@H]2OC(C)=O)cc1 [DILTIAZEM]	drug-induced liver injury reported	drug-induced liver injury reported	drug-induced liver injury reported			
C[S+](C)[O-] [DIMETHYL SULFOXIDE]	drug-induced liver injury reported	drug-induced liver injury reported	drug-induced liver injury reported			
CCCCC[C@H](O)/C=C/[C@H]1[C@H](O)CC(=O)[C@@H]1C/C=C\CCCC(=O)O [DINOPROSTONE]	drug-induced liver injury reported	drug-induced liver injury reported	no drug-induced liver injury reported			
CCCCC[C@H](O)/C=C/[C@@H]1[C@@H](C/C=C\CCCC(=O)O)[C@@H](O)C[C@H]1O [DINOPROST]	drug-induced liver injury reported	drug-induced liver injury reported	drug-induced liver injury reported			
COc1ccc(-c2cc(=O)c3c(O)cc(O[C@@H]4O[C@H](CO[C@@H]5O[C@@H](C)[C@H](O)[C@@H](O)[C@H]5O)[C@@H](O)[C@H](O)[C@H]4O)cc3o2)cc1O [DIOSMIN]	no drug-induced liver injury reported	drug-induced liver injury reported	no drug-induced liver injury reported			
CN(C)CCOC(c1ccccc1)c1ccccc1 [DIPHENHYDRAMINE]				no drug-induced liver injury reported	drug-induced liver injury reported	no drug-induced liver injury reported
Cc1c(N(C)CS(=O)(=O)[O-])c(=O)n(-c2ccccc2)n1C.[Na+] [DIPYRONE SODIUM]	drug-induced liver injury reported	drug-induced liver injury reported	no drug-induced liver injury reported			
C=C/C=C\[C@H](C)[C@H](OC(N)=O)[C@@H](C)[C@H](O)[C@@H](C)C/C(C)=C\[C@H](C)[C@@H](O)[C@@H](C)/C=C\[C@@H](O)C[C@@H]1OC(=O)[C@H](C)[C@@H](O)[C@H]1C [DISERMOLIDE]	drug-induced liver injury reported	no drug-induced liver injury reported	no drug-induced liver injury reported			
CC(C)N(CCC(C(N)=O)(c1ccccc1)c1ccccn1)C(C)C (configuration not stated) [DISOPYRAMIDE]	drug-induced liver injury reported	no drug-induced liver injury reported	no drug-induced liver injury reported			
CCN(CC)C(=S)[S][Na] [DITIOCARB SODIUM]	no drug-induced liver injury reported	drug-induced liver injury reported	no drug-induced liver injury reported			
CC(CCc1ccc(O)cc1)NCCc1ccc(O)c(O)c1 (configuration not stated) [DOBUTAMINE]	drug-induced liver injury reported	no drug-induced liver injury reported	drug-induced liver injury reported			
